Laboratory results reported in PubChem BioAssay AID1963434 (Molecular Pharmacology Branch, DTP, NCI, 2024).
Values belong to the molecule of their own block, whether it stands above or below them.

System: 755483-174-R-J1-PDC complex spheroid growth, percent test/control
Assay: Anticancer human tumor 755483-174-R-J1-PDC patient-derived rhabdomyosarcoma cell line growth inhibition [Asc]
Conditions: for IC50: curve of first compound; for viability, T/C: stronger effect = lower value
Outline: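 Complex spheroids combining tumor cells with HUVEC endothelial cells and human MSCs, at 37 degrees C, 5% CO2; agents tested alone or combined, half-log dilutions from at or near clinical Cmax, or 10 microM if Cmax unknown.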

[1] = second compound 0.01 µM, first compound 0.0316 µM
[2] = second compound 0.01 µM, first compound 0.1 µM
[3] = second compound 0.01 µM, first compound 0.316 µM
[4] = second compound 0.01 µM, first compound 1 µM
[5] = second compound 0.01 µM, first compound 3.16 µM
[6] = second compound 0.01 µM, first compound 10 µM
[7] = second compound 0.0316 µM, first compound 0.0316 µM
[8] = second compound 0.0316 µM, first compound 0.1 µM
[9] = second compound 0.0316 µM, first compound 0.316 µM
[10] = second compound 0.0316 µM, first compound 1 µM
[11] = second compound 0.0316 µM, first compound 3.16 µM
[12] = second compound 0.0316 µM, first compound 10 µM
[13] = second compound 0.1 µM, first compound 0.0316 µM
[14] = second compound 0.1 µM, first compound 0.1 µM
[15] = second compound 0.1 µM, first compound 0.316 µM
[16] = second compound 0.1 µM, first compound 1 µM
[17] = second compound 0.1 µM, first compound 3.16 µM
[18] = second compound 0.1 µM, first compound 10 µM
[19] = second compound 0.316 µM, first compound 0.0316 µM
[20] = second compound 0.316 µM, first compound 0.1 µM
[21] = second compound 0.316 µM, first compound 0.316 µM
[22] = second compound 0.316 µM, first compound 1 µM
[23] = second compound 0.316 µM, first compound 3.16 µM
[24] = second compound 0.316 µM, first compound 10 µM
[25] = second compound 1 µM, first compound 0.0316 µM
[26] = second compound 1 µM, first compound 0.1 µM
[27] = second compound 1 µM, first compound 0.316 µM
[28] = second compound 1 µM, first compound 1 µM
[29] = second compound 1 µM, first compound 3.16 µM
[30] = second compound 1 µM, first compound 10 µM
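Further: spheroids exposed to compounds for seven days before readout.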

IC50 (second compound 0.01 µM): 585 nM
IC50 (second compound 0.0316 µM): 336 nM
IC50 (second compound 0.1 µM): 428 nM
IC50 (second compound 0.316 µM): < 31.6 nM
IC50 (second compound 1 µM): < 31.6 nM
SMILES: C=C(F)C(=O)N1CCN(c2nc(OCC3CCCN3C)nc3c2CCN(c2cccc4cccc(Cl)c24)C3)CC1CC#N (stereo not given) + CNC(C)C(=O)NC1CN(S(=O)(=O)c2cccc(S(=O)(=O)N3CCC4CCC(C(=O)NC(c5ccccc5)c5ccccc5)N4C(=O)C(NC(=O)C(C)NC)C3)c2)CCC2CCC(C(=O)NC(c3ccccc3)c3ccccc3)N2C1=O
viability, T/C [1]: 68.4%
viability, T/C [2]: 62%
viability, T/C [3]: 58.9%
viability, T/C [4]: 40.6%
viability, T/C [5]: 3.47%
viability, T/C [6]: 0.12%
viability, T/C [7]: 48.5%
viability, T/C [8]: 56.7%
viability, T/C [9]: 50.1%
viability, T/C [10]: 32%
viability, T/C [11]: 2.46%
viability, T/C [12]: 0.12%
viability, T/C [13]: 40%
viability, T/C [14]: 63.9%
viability, T/C [15]: 66.2%
viability, T/C [16]: 31.1%
viability, T/C [17]: 17.1%
viability, T/C [18]: 0.12%
viability, T/C [19]: 26.6%
viability, T/C [20]: 30.6%
viability, T/C [21]: 38.7%
viability, T/C [22]: 23.3%
viability, T/C [23]: 2.01%
viability, T/C [24]: 0.12%
viability, T/C [25]: 29.7%
viability, T/C [26]: 34.6%
viability, T/C [27]: 21.6%
viability, T/C [28]: 13.1%
viability, T/C [29]: 0.83%
viability, T/C [30]: 0.19%

IC50 (second compound 0.01 µM): > 10000 nM
IC50 (second compound 0.0316 µM): > 10000 nM
IC50 (second compound 0.1 µM): 31.6 nM
IC50 (second compound 0.316 µM): < 31.6 nM
IC50 (second compound 1 µM): < 31.6 nM
SMILES: C=CC(=O)N1CCN(c2nc(=O)n(-c3c(C)ccnc3C(C)C)c3nc(-c4c(O)cccc4F)c(F)cc23)C(C)C1 (stereo not given) + CNC(C)C(=O)NC1CN(S(=O)(=O)c2cccc(S(=O)(=O)N3CCC4CCC(C(=O)NC(c5ccccc5)c5ccccc5)N4C(=O)C(NC(=O)C(C)NC)C3)c2)CCC2CCC(C(=O)NC(c3ccccc3)c3ccccc3)N2C1=O
viability, T/C [1]: 80.2%
viability, T/C [2]: 89.3%
viability, T/C [3]: 75.2%
viability, T/C [4]: 61.4%
viability, T/C [5]: 80.5%
viability, T/C [6]: 63%
viability, T/C [7]: 51.8%
viability, T/C [8]: 77.5%
viability, T/C [9]: 61.4%
viability, T/C [10]: 56.6%
viability, T/C [11]: 75.1%
viability, T/C [12]: 37.7%
viability, T/C [13]: 53.4%
viability, T/C [14]: 54.7%
viability, T/C [15]: 44.6%
viability, T/C [16]: 59.2%
viability, T/C [17]: 69.8%
viability, T/C [18]: 51.1%
viability, T/C [19]: 38.4%
viability, T/C [20]: 36.2%
viability, T/C [21]: 44.4%
viability, T/C [22]: 61.1%
viability, T/C [23]: 46.2%
viability, T/C [24]: 43.9%
viability, T/C [25]: 32.4%
viability, T/C [26]: 28.9%
viability, T/C [27]: 33.6%
viability, T/C [28]: 35.5%
viability, T/C [29]: 39.9%
viability, T/C [30]: 36%

IC50 (second compound 0.01 µM): 148 nM
IC50 (second compound 0.0316 µM): < 9.49 nM
IC50 (second compound 0.1 µM): < 9.49 nM
IC50 (second compound 0.316 µM): < 9.49 nM
IC50 (second compound 1 µM): < 9.49 nM
SMILES: CCN1C(C(=O)NC23CCC(C(=O)O)(CC2)CC3)C(c2cccc(Cl)c2F)C2(C(=O)Nc3cc(Cl)ccc32)C12CCCCC2 (stereo not given) + CNC(C)C(=O)NC1CN(S(=O)(=O)c2cccc(S(=O)(=O)N3CCC4CCC(C(=O)NC(c5ccccc5)c5ccccc5)N4C(=O)C(NC(=O)C(C)NC)C3)c2)CCC2CCC(C(=O)NC(c3ccccc3)c3ccccc3)N2C1=O
viability, T/C (second compound 0.01 µM, first compound 0.00949 µM): 56.2%
viability, T/C (second compound 0.01 µM, first compound 0.03 µM): 73.9%
viability, T/C (second compound 0.01 µM, first compound 0.0949 µM): 55%
viability, T/C (second compound 0.01 µM, first compound 0.3 µM): 39.3%
viability, T/C (second compound 0.01 µM, first compound 0.949 µM): 48.2%
viability, T/C (second compound 0.01 µM, first compound 3 µM): 38.6%
viability, T/C (second compound 0.0316 µM, first compound 0.00949 µM): 38.6%
viability, T/C (second compound 0.0316 µM, first compound 0.03 µM): 45.8%
viability, T/C (second compound 0.0316 µM, first compound 0.0949 µM): 50%
viability, T/C (second compound 0.0316 µM, first compound 0.3 µM): 49.2%
viability, T/C (second compound 0.0316 µM, first compound 0.949 µM): 44.2%
viability, T/C (second compound 0.0316 µM, first compound 3 µM): 28.9%
viability, T/C (second compound 0.1 µM, first compound 0.00949 µM): 27.9%
viability, T/C (second compound 0.1 µM, first compound 0.03 µM): 23.6%
viability, T/C (second compound 0.1 µM, first compound 0.0949 µM): 39.4%
viability, T/C (second compound 0.1 µM, first compound 0.3 µM): 28.9%
viability, T/C (second compound 0.1 µM, first compound 0.949 µM): 32.6%
viability, T/C (second compound 0.1 µM, first compound 3 µM): 24.4%
viability, T/C (second compound 0.316 µM, first compound 0.00949 µM): 19.9%
viability, T/C (second compound 0.316 µM, first compound 0.03 µM): 26.2%
viability, T/C (second compound 0.316 µM, first compound 0.0949 µM): 40%
viability, T/C (second compound 0.316 µM, first compound 0.3 µM): 37.9%
viability, T/C (second compound 0.316 µM, first compound 0.949 µM): 23.5%
viability, T/C (second compound 0.316 µM, first compound 3 µM): 27%
viability, T/C (second compound 1 µM, first compound 0.00949 µM): 23.5%
viability, T/C (second compound 1 µM, first compound 0.03 µM): 23.1%
viability, T/C (second compound 1 µM, first compound 0.0949 µM): 18.1%
viability, T/C (second compound 1 µM, first compound 0.3 µM): 23.1%
viability, T/C (second compound 1 µM, first compound 0.949 µM): 21.5%
viability, T/C (second compound 1 µM, first compound 3 µM): 34.4%
